The values below are quoted from earlier work in US5912253A, “Rapamycin derivatives” (Novartis AG, priority 1993, dated 1999).

For data set [1], the system named is macrophilin-12 (FK-506 binding protein or FKBP-12).
For data set [2] the following is noted: in vivo.

On to `C=CC[C@@H]1/C=C(\C)C[C@H](C)C[C@H](OC)[C@H]2O[C@@](O)(C(=O)C(=O)N3CCCC[C@H]3C(=O)O[C@H](/C(C)=C/[C@@H]3CC[C@@H](O)[C@H](OC)C3)[C@H](C)[C@@H](O)CC1=O)[C@H](C)C[C@@H]2OC` [FK-506], for which the “binding in vivo to macrophilin-12” value in data set [1] is “known to bind in vivo to macrophilin-12”.
As for `CO[C@H]1C[C@@H]2CC[C@@H](C)[C@@](O)(O2)C(=O)C(=O)N2CCCC[C@H]2C(=O)O[C@H]([C@H](C)C[C@@H]2CC[C@@H](O)[C@H](OC)C2)CC(=O)[C@H](C)/C=C(\C)[C@@H](O)[C@@H](OC)C(=O)[C@H](C)C[C@H](C)/C=C/C=C/C=C/1C` [Rapamycin, rapamycin], the solubility entry is “highly insoluble”. In data set [1], the “binding in vivo to macrophilin-12” value is given as “known to bind in vivo to macrophilin-12”. Further, in data set [2], the bioavailability entry is “very low and variable”.
